Results: paper PMC8253220, “Molecular design, synthesis and in vitro biological evaluation of thienopyrimidine–hydroxamic acids as chimeric kinase HDAC inhibitors: a challenging approach to combat cancer” (Journal of Enzyme Inhibition and Medicinal Chemistry, 2021)
Where “and” joins values, the source holds several entries; their conditions need not be identical. Identical values can stand only once.

Legend:
CCRF-CEM = experiment: NCI one-dose screen; assay type: cell-based, human; settings: Leukemia CCRF-CEM, 10 µM single dose
Outline: (§1)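 At 10 μM, a single concentration, compounds were evaluated for antiproliferative effect in the NCI 60-line screen, with growth expressed relative to untreated control cells.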

MALME-3M = experiment: NCI one-dose screen; assay type: cell-based, human; settings: Melanoma MALME-3M, 10 µM single dose
Outline: as §1

SNB-19 = experiment: NCI one-dose screen; assay type: cell-based, human; settings: CNS SNB-19, 10 µM single dose
Outline: (§2)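 One concentration (10 μM) applied to each line of the full NCI-60 panel; percent growth compared against untreated cells.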

HCT-116 = experiment: NCI one-dose screen; assay type: cell-based, human; settings: Colon HCT-116, 10 µM single dose
Outline: as §1

SW-620 = experiment: NCI one-dose screen; assay type: cell-based, human; settings: Colon SW-620, 10 µM single dose
Outline: as §2

MOLT-4 = experiment: NCI one-dose screen; assay type: cell-based, human; settings: Leukemia MOLT-4, 10 µM single dose
Outline: (§3)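 Percent inhibition; single 10 μM dose; NCI-60 cell panel; untreated cells as reference.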

M14 = experiment: NCI one-dose screen; assay type: cell-based, human; settings: Melanoma M14, 10 µM single dose
Outline: as §1

HT29 = experiment: NCI one-dose screen; assay type: cell-based, human; settings: Colon HT29, 10 µM single dose
Outline: as §1

SNB-75 = experiment: NCI one-dose screen; assay type: cell-based, human; settings: CNS SNB-75, 10 µM single dose
Outline: (§4)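 Single 10 μM dose, NCI-60 panel; read-out = % growth vs untreated controls → % inhibition.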

IGROV1 = experiment: NCI one-dose screen; assay type: cell-based, human; settings: Ovarian IGROV1, 10 µM single dose
Outline: as §1

UACC-62 = experiment: NCI one-dose screen; assay type: cell-based, human; settings: Melanoma UACC-62, 10 µM single dose
Outline: as §1

SK-MEL-2 = experiment: NCI one-dose screen; assay type: cell-based, human; settings: Melanoma SK-MEL-2, 10 µM single dose
Outline: as §2

786-0 = experiment: NCI one-dose screen; assay type: cell-based, human; settings: Renal 786-0, 10 µM single dose
Outline: as §1

LOX IMVI = experiment: NCI one-dose screen; assay type: cell-based, human; settings: Melanoma LOX IMVI, 10 µM single dose
Outline: as §1

SR = experiment: NCI one-dose screen; assay type: cell-based, human; settings: Leukemia SR, 10 µM single dose
Outline: as §1

K-562 = experiment: NCI one-dose screen; assay type: cell-based, human; settings: Leukemia K-562, 10 µM single dose
Outline: as §1

ACHN = experiment: NCI one-dose screen; assay type: cell-based, human; settings: Renal ACHN, 10 µM single dose
Outline: as §1

NCI/ADR-RES = experiment: NCI one-dose screen; assay type: cell-based, human; settings: Ovarian NCI/ADR-RES, 10 µM single dose
Outline: as §1

COLO 205 = experiment: NCI one-dose screen; assay type: cell-based, human; settings: Colon COLO 205, 10 µM single dose
Outline: as §1

NCI-H226 = experiment: NCI one-dose screen; assay type: cell-based, human; settings: NSCLC NCI-H226, 10 µM single dose
Outline: as §4

NCI-H522 = experiment: NCI one-dose screen; assay type: cell-based, human; settings: NSCLC NCI-H522, 10 µM single dose
Outline: as §4

NCI-H23 = experiment: NCI one-dose screen; assay type: cell-based, human; settings: NSCLC NCI-H23, 10 µM single dose
Outline: as §3

T-47D = experiment: NCI one-dose screen; assay type: cell-based, human; settings: Breast T-47D, 10 µM single dose
Outline: as §1

SF-268 = experiment: NCI one-dose screen; assay type: cell-based, human; settings: CNS SF-268, 10 µM single dose
Outline: as §3

VEGFR-2 = VEGFR-2 (Homo sapiens, UniProt P35968); experiment: In vitro VEGFR-2 tyrosine kinase inhibitory assay (Z'-LYTE, SelectScreen); assay type: biochemical; settings: 10 µM single dose
Chain of VEGFR-2 (P35968 20-1356): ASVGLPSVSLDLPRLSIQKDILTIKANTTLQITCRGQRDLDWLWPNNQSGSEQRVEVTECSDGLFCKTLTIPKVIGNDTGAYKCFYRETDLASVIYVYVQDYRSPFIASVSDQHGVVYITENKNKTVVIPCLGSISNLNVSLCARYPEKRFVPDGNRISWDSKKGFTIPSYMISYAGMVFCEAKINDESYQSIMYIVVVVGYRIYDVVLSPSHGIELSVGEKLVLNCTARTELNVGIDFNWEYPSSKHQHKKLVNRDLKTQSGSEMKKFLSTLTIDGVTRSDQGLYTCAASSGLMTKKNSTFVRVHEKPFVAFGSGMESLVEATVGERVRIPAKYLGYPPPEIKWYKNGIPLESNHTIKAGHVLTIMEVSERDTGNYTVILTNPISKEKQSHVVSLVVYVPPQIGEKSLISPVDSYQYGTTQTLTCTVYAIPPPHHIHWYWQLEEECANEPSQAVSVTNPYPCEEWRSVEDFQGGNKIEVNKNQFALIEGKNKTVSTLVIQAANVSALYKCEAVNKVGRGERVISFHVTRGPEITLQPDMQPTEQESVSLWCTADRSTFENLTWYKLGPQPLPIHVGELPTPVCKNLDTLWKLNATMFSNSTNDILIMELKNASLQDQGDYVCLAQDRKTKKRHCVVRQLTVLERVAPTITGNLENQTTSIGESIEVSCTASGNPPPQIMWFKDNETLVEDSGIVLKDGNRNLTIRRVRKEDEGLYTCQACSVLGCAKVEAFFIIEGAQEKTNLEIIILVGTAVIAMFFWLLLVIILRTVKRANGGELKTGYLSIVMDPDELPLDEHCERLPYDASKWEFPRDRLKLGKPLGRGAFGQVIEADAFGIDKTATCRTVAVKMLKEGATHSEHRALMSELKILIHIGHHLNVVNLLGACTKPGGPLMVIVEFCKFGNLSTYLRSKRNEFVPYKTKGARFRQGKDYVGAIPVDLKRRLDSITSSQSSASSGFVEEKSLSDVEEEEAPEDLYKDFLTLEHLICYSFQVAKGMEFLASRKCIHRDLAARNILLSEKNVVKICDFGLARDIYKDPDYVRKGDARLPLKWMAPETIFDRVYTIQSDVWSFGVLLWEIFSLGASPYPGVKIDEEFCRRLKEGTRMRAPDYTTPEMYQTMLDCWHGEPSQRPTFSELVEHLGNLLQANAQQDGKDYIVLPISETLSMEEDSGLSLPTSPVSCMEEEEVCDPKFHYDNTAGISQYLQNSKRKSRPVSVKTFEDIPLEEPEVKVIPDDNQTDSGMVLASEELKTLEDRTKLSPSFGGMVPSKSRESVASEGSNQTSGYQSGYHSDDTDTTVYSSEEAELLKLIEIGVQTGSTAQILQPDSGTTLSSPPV
Procedure: The target compounds were evaluated for their in vitro inhibitory activities against EGFR, VEGFR-2, and HDAC6. The EGFR and VEGFR-2 inhibitory assays were performed at Thermo Fischer Scientific, Madison, WI, USA (SelectScreenServices@thermofisher.com). The HDAC inhibitory assays were performed at BPS Bioscience, San Diego, CA, USA (www.bpsbioscience.com). Initially, all of the synthesised target compounds were evaluated for their percent inhibitory activity against EGFR, VEGFR-2, and HDACs at 10 µM single dose concentration, in which their mean percent inhibition is summarised in (Figure 5, Tables 1 and [2]). Representative compounds were evaluated for their percent inhibitory activity against EGFR and VEGFR-2 at 6 different concentrations (0.1 nM, 1 nM, 10 nM, 100 nM, 1 µM, 10 µM) to subsequently calculate their IC50 values (Table 3). Additionally, all of the synthesised target compounds were submitted to the National Cancer Institute “NCI” Bethesda, Maryland, USA (www.dtp.nci.nih.gov), to evaluate theirs in vitro antiproliferative activities against NCI 60- cancer cell line panel.
In vitro enzyme inhibition determination for the synthesised compounds was carried out in Thermo Fischer Scientific, Madison, WI, USA (SelectScreenServices@thermofisher.com). The EGFR and VEGFR-2 tyrosine kinase % inhibitory activity at a single-dose concentration of 10 µM was performed initially then representative compounds were evaluated at single-dose concentrations of (0.1 nM, 1 nM, 10 nM, 100 nM, 1 µM) using ZYLTE technology. A fluorescence-based, coupled-enzyme format is employed in the biochemical assay and depends on the sensitivity of proteolytic cleavage to non-phosphorylated and phosphorylated peptides. Then IC50 values for selected compounds were determined by GraphPad Prism at Misr international university.

| Compound | Growth Percent (MALME-3M) | Growth Percent (SNB-19) | Growth Percent (HCT-116) | Growth Percent (SW-620) | Growth Percent (MOLT-4) | Growth Percent (M14) | Growth Percent (HT29) | Growth Percent (SNB-75) | Growth Percent (IGROV1) | Growth Percent (UACC-62) | Growth Percent (SK-MEL-2) | Growth Percent (786-0) | Growth Percent (LOX IMVI) | Growth Percent (SR) | Growth Percent (K-562) | Growth Percent (ACHN) | Growth Percent (NCI/ADR-RES) | Growth Percent (COLO 205) | Growth Percent (NCI-H226) | Growth Percent (NCI-H522) | also measured |
| --- | --- | --- | --- | --- | --- | --- | --- | --- | --- | --- | --- | --- | --- | --- | --- | --- | --- | --- | --- | --- | --- |
| Cc1c(C(=O)NO)sc2ncnc(Nc3ccc(NC(=O)Nc4ccccc4)cc3)c12 [Compound 7a, 1–(4-(6-(hydroxycarbamoyl)-5-methylthieno[2,3-d]pyrimidin-4-ylamino)phenyl)-3-phenylurea] | 89.5% and 89.51% | 100.2% | 93.8% and 93.86% | 98.4% and 98.44% | 103.9% and 103.94% | 95.1% and 95.18% | 94.7% and 94.78% | 75.5% and 75.56% | 103.6% and 103.69% | 101.7% and 101.73% | 107.8% | 95.9% and 95.93% | 90.5% and 90.57% | 99.1% and 99.16% | 105.9% and 105.92% | 102.3% and 102.35% | 102.1% and 102.16% | 106.8% and 106.84% | 99.4% and 99.47% | 92.0% and 92.04% | Growth Percent (CCRF-CEM): 97.4% and 97.44%; Growth Percent (NCI-H23): 101.19%; Growth Percent (T-47D): 95.7% and 95.72%; Growth Percent (SF-268): 91.7%; inhibition at 10 µM (VEGFR-2): 89% |
| COc1cccc(NC(=O)Nc2ccc(Nc3ncnc4sc(C(=O)NO)c(C)c34)cc2)c1 [Compound 7b, 1–(4-(6-(hydroxycarbamoyl)-5-methylthieno[2,3-d]pyrimidin-4-ylamino)phenyl)-3–(3-methoxyphenyl)urea] | 101.9% and 101.92% | 100.1% and 100.14% | 102.7% and 102.72% | 101.2% and 101.24% | 112.4% and 112.45% | 101.0% and 101.01% | 103.6% and 103.62% | 92.7% and 92.76% | 106.5% and 106.51% | 96.7% and 96.74% | 100.6% and 100.68% | 100.6% and 100.62% | 94.1% and 94.14% | 115.8% and 115.82% | 108.5% and 108.57% | 103.7% and 103.71% | 97.6% and 97.67% | 114.4% and 114.44% | 94.5% and 94.51% | 90.2% and 90.28% | Growth Percent (CCRF-CEM): 101.2% and 101.22%; Growth Percent (NCI-H23): 98.8% and 98.89%; Growth Percent (T-47D): 99.6% and 99.67%; Growth Percent (SF-268): 93.3% and 93.33%; inhibition at 10 µM (VEGFR-2): 78% |
| Cc1c(C(=O)NO)sc2ncnc(Nc3ccc(NC(=S)Nc4ccccc4)cc3)c12 [Compound 7d, 1–(4-(6-(hydroxycarbamoyl)-5-methylthieno[2,3-d]pyrimidin-4-ylamino)phenyl)-3-phenylthiourea] | 99.4% and 99.48% | 96.4% and 96.45% | 105.2% and 105.28% | 104.8% and 104.86% | 111.3% and 111.35% | 104.3% | 102.7% and 102.73% | 87.9% and 87.95% | 111.5% and 111.55% | 94.9% and 94.97% | 104.1% and 104.16% | 99.1% and 99.11% | 93.7% and 93.76% | 110.3% and 110.34% | 103.0% and 103.01% | 105.4% and 105.43% | 99.5% and 99.55% | 112.9% and 112.97% | 103.8% and 103.88% | 92.1% and 92.13% | Growth Percent (NCI-H23): 96.5% and 96.54%; Growth Percent (T-47D): 112.9% and 112.91%; Growth Percent (SF-268): 98.1% and 98.17%; inhibition at 10 µM (VEGFR-2): 45% |
| Cc1c(C(=O)NO)sc2ncnc(Nc3ccc(F)c(Cl)c3)c12 [Compound 15d, 4–(3-chloro-4-fluorophenylamino)-N-hydroxy-5-methylthieno[2,3-d]pyrimidine-6-carboxamide] | 116.1% and 116.15% | 91.8% | 106.8% | 108.2% and 108.22% | 110.0% and 110.03% | 110.2% and 110.24% | 102.5% and 102.54% | 99.2% | 103.9% and 103.95% | 88.5% and 88.53% | 100.9% | 94.4% and 94.41% | 101.3% and 101.32% | 101.4% and 101.45% | 105.3% and 105.38% | 97.6% and 97.62% | 99.6% and 99.61% | 112.3% and 112.34% | 103.2% and 103.24% | 88.1% and 88.16% | Growth Percent (NCI-H23): 95.7% and 95.72%; Growth Percent (T-47D): 95.4% and 95.46%; Growth Percent (SF-268): 96.5%; inhibition at 10 µM (VEGFR-2): 54% |
